SMILES strings stand for the structures.

One series deals with HeLa. Put plainly: Cytotoxicity against human HeLa MKYP cells assessed as percentage of DAPI-positive cells at 50 uM and measured by DAPI staining method. In kind it is toxicity, cell-based.
Series [1] in a line: Induction of mitophagy in human HeLa MKYP cells treated with FCCP/oligomycin for 6 hrs and measured by FACS analysis. In kind it is functional, cell-based. For orientation: Flow cytometry measures light scatter and fluorescence of single cells or particles in a stream.

For orientation: EC50 means the concentration giving half of the maximal effect. A lower EC50 goes with an effect from little substance. Consider `CCCCNc1ncnc2[nH]c(C3CC3)nc12`, for which the Activity in the series with HeLa amounted to 16.2%. The compound also gave an EC50 in series [1] of 18.8 µM.
For `c1ccc2c(c1)OCC2Nc1ncnc2[nH]cnc12` (stereo not given) the same measures were 21% and 6.1 µM.
With `COc1ncccc1CNc1ncnc2[nH]c(C(F)(F)F)cc12`, the Activity with HeLa came out at 7.6%.
In the case of `Fc1cc(Cl)cc(CNc2ncnc3[nH]c(C(F)(F)F)cc23)c1`, the Activity in the series on HeLa was found to be 4.8%.
For the compound `FC(F)(F)c1cc2c(NC3CCCc4ccccc43)ncnc2[nH]1` (racemic), in the series on HeLa, the Activity is 27.1%. The compound also showed an EC50 in series [1] of more than 50 µM.
On to `FC(F)(F)c1cc2c(NCc3cncnc3)ncnc2[nH]1`, for which, in the series with HeLa, the Activity was 1.7%. Further, in series [1], the EC50 was 11.7 µM.
For `FC(F)(F)c1cc2c(N[C@H]3COc4ccccc43)ncnc2[nH]1` the same measures were 22.8% and 1.4 µM.
For `OC[C@@H](Nc1ncnc2[nH]c(C(F)(F)F)cc12)c1ccccc1` the same measures were 30.3% and 4.4 µM.
For `FC(F)(F)c1cc2c(N[C@@H]3COc4ccccc43)ncnc2[nH]1` the same measures were 29.2% and 14.9 µM.
With `c1ccc(C2(Nc3ncnc4[nH]cnc34)CC2)cc1`, the Activity in the series on HeLa was found to be 13.4%. This compound registered a half-maximal effective concentration (EC50) in series [1] of more than 50 µM.
On to `CCC(Nc1ncnc2[nH]c(C(F)(F)F)cc12)c1cncnc1` (stereo not given), for which the Activity with HeLa was 15.9%. Also, in series [1], the EC50 stood at 18.8 µM.
Turning to `FC(F)(F)c1cc2c(NCc3cccc(Cl)c3)ncnc2[nH]1`, the Activity with HeLa is 20.3%.
As for `c1ccc2c(c1)CC[C@H]2Nc1ncnc2[nH]cnc12`, the Activity with HeLa worked out at 10.3%. In series [1], this compound had an EC50 of more than 50 µM.
For `FC(F)(F)c1cc2c(N[C@H]3CCOc4ccccc43)ncnc2[nH]1` the same measures were 37.7% and 5.6 µM.
For `c1ccc2c(c1)OCC[C@@H]2Nc1ncnc2[nH]cnc12` the same measures were 17% and 1.69 µM.
For `COc1ncc(CNc2ncnc3[nH]c(C(F)(F)F)cc23)cn1` the same measures were 5.8% and 10.6 µM.
For the compound `c1coc(CNc2ncnc3[nH]cnc23)c1` [KINETIN], in the series on HeLa, the Activity turned out to be 4.9%.
With `c1ncc(CNc2ncnc3[nH]cnc23)cn1`, in the series with HeLa, the Activity was 5.3%. Further, the EC50 in series [1] was found to be 4.4 µM.
For `CCCCNc1ncnc2[nH]c(C(F)(F)F)c(C)c12` the same measures were 11.9% and more than 50 µM.
The matching figures for `c1ccc(CCNc2ncnc3[nH]cnc23)cc1`: 19.7% and 2.26 µM.
Regarding `CCCCNc1ncnc2c1cc(C(F)(F)F)n2C(C)=O`, the Activity in the series on HeLa came out at 36.6%. In addition, the EC50 in series [1] is more than 50 µM.
For `OC[C@H](Nc1ncnc2[nH]cnc12)c1ccccc1` the same measures were 14.5% and 3.48 µM.
For `c1ccc2c(c1)OCC[C@H]2Nc1ncnc2[nH]cnc12` the same measures were 16% and more than 50 µM.
With `FC(F)(F)c1cc2c(NCc3cnccn3)ncnc2[nH]1`, the Activity in the series on HeLa is recorded as 0.9%.
With `Cc1nc2c(N[C@@H](C)c3ccccc3)ncnc2[nH]1`, the Activity in the series on HeLa was found to be 31.9%. This compound also had an EC50 in series [1] of 4.6 µM.
The matching figures for `CC(CNc1ncnc2[nH]cnc12)c1ccccc1` (stereo not given): 28.9% and 3.6 µM.
The matching figures for `OC[C@@H](Nc1ncnc2[nH]cnc12)c1ccccc1`: 8.9% and more than 50 µM.
The matching figures for `c1ncc(CNc2ncnc3[nH]c(C4CC4)nc23)cn1`: 7.1% and more than 50 µM.
In the case of `CN(C)C1CCC(CNc2ncnc3[nH]c(C(F)(F)F)cc23)CC1` (stereo not given), in the series on HeLa, the Activity was found to be 5.2%. In addition, the EC50 in series [1] was more than 50 µM.
Take `Fc1cccc(CNc2ncnc3[nH]c(C(F)(F)F)cc23)c1Cl`: the Activity in the series on HeLa worked out at 4.5%.
Same read-out and setting: for `FC(F)(F)c1cc2c(NCc3ccncn3)ncnc2[nH]1` the value was 1.5%.

The record behind these values is ChEMBL document CHEMBL5050850, “Compositions and methods of using the same for treatment of neurodegenerative and mitochondrial disease” (2020).
